Test results published in PMC3948918 (PLoS ONE, 2014).
Where two headings read alike, the source gives them in different places. Numbered stars: 1 amine (or outer) side, 2 acyl side, 3 side chain; on linkers, the order of the positions; unused ones are H or OH. Bridge positions count the residues as written; N and C are the ends. Square brackets hold non-standard residues; d marks the D form. Peptide text beside a SMILES is read from it. Adda = CO[C@@H](Cc1ccccc1)[C@@H](C)/C=C(C)/C=C/[C@H](N[*:1])[C@H](C)C(=O)[*:2]; dAsp(3S-Me) = C[C@H](C(=O)[*:3])[C@@H](N[*:1])C(=O)[*:2]; d(γGlu) = O=C(O)[C@@H](CCC(=O)[*:2])N[*:1]; NMeDha = C=C(NC)C(=O)O

Assays:
[1] = test system: OATP1B3-expressing RKO cells
[2] = test system: OATP1B1-expressing RKO cells; conditions: read-out: IC50 RKO B1
[3] = test system: RKO control cells
[4] = test system: OATP1B1-expressing HeLa cells; conditions: read-out: IC50 HeLa B1
[5] = test system: OATP1B3-expressing HeLa cells; conditions: for IC50: read-out: IC50 HeLa B3
[6] = test system: HeLa Control cells; conditions: read-out: IC50 HeLa Control
[7] = test system: OATP1B1- and OATP1B3-expressing HeLa or RKO cell lines
[8] = test system: OATP1B1; assay: in vitro; conditions: human

Row | SMILES | Ratio IC50 B1/B3 RKO [1] | IC50 ([1]; read-out: IC50 RKO B3) [nM] | IC50 [2] [nM] | IC50 ([3]; read-out: IC50 RKO control) [nM] | IC50 [4] [nM] | Ratio IC50 B1/B3 HeLa [5] | IC50 [5] [nM] | IC50 [6] [nM] | transporter selectivity (in words) [7] | IC50 ([1]; human) [nM] | IC50 [8] [nM] | IC50 ([3]; 3 h) [nM] | IC50 values (potency grouping) [7]
1 | C=C1C(=O)N[C@H](C)C(=O)N[C@@H](CC(C)C)C(=O)N[C@@H](C(=O)O)[C@H](C)C(=O)N[C@@H](CCCNC(=N)N)C(=O)N[C@@H](/C=C/C(C)=C/[C@H](C)[C@H](Cc2ccccc2)OC)[C@H](C)C(=O)N[C@@H](C(=O)O)CCC(=O)N1C [compound 1, MC-LR, reference compound] (R[Adda][d(γGlu)][NMeDha][dA]L[dAsp(3S-Me)]-OH; lactam N-7) | 0.3 | 26.9 | 8.2 | > 1000 | 1 | 0.2 | 5.1 | > 1000 | least OATP1B3 selective |  |  |  | 
2 | C=C1C(=O)N[C@H](C)C(=O)N[C@@H](CC(C)C)C(=O)N[C@@H](C(=O)O)CC(=O)N[C@@H](CCCNC(=N)N)C(=O)N[C@@H](/C=C/C(C)=C/[C@H](C)[C@H](Cc2ccccc2)OC)[C@H](C)C(=O)N[C@@H](C(=O)O)CCC(=O)N1C [compound 2, [D-Asp^3]MC-LR] | 0.2 | 31.3 | 7.3 | > 1000 |  |  |  |  | least OATP1B3 selective |  |  |  | 
3 | C=C1C(=O)N[C@H](C)C(=O)N[C@@H](CC(C)CC)C(=O)N[C@@H](C(=O)O)CC(=O)N[C@@H](CCCNC(=N)N)C(=O)N[C@@H](/C=C/C(C)=C/[C@H](C)[C@H](Cc2ccccc2)OC)[C@H](C)C(=O)N[C@@H](C(=O)O)CCC(=O)N1C (stereo partly drawn) [compound 3, [D-Asp^3]MC-HilR] | 0.4 |  |  |  |  |  |  |  | least OATP1B3 selective | 142 | 57 | > 1000 | 
4 | C/C=C1/NC(=O)CC[C@H](C(=O)O)NC(=O)[C@@H](C)[C@H](/C=C/C(C)=C/[C@H](C)[C@H](Cc2ccccc2)OC)NC(=O)[C@H](CCCNC(=N)N)NC(=O)C[C@H](C(=O)O)NC(=O)[C@H](CC(C)CC)NC(=O)[C@@H](C)NC1=O (stereo partly drawn) [compound 4, [D-Asp^3,(E)-Dhb^7]MC-HilR] | 15.0 |  |  |  |  |  |  |  | most OATP1B3 selective | 3.8 | 56.9 | 993 | 
5 | C=C1C(=O)N[C@H](C)C(=O)N[C@@H](CC(C)C)C(=O)N[C@@H](C(=O)O)[C@H](C)C(=O)N[C@@H](Cc2ccc(O)cc2)C(=O)N[C@@H](/C=C/C(C)=C/[C@H](C)[C@H](Cc2ccccc2)OC)[C@H](C)C(=O)N[C@@H](C(=O)O)CCC(=O)N1C [compound 5, MC-LY] (Y[Adda][d(γGlu)][NMeDha][dA]L[dAsp(3S-Me)]-OH; lactam N-7) |  |  |  |  | 0.16 | 0.8 | 0.21 | > 10 | least OATP1B3 selective |  |  |  | sub-nanomolar
6 | C/C=C1/NC(=O)CC[C@H](C(=O)O)NC(=O)[C@@H](C)[C@H](/C=C/C(C)=C/[C@H](C)[C@H](Cc2ccccc2)OC)NC(=O)[C@H](Cc2ccc(O)cc2)NC(=O)C[C@H](C(=O)O)NC(=O)[C@H](CC(C)C)NC(=O)[C@@H](C)NC1=O [compound 6, [D-Asp^3,(E)-Dhb^7]MC-LY] |  |  |  |  | 0.47 | 2.6 | 0.18 | > 10 | weakly OATP1B3 selective |  |  |  | sub-nanomolar
7 | C=C1C(=O)N[C@H](C)C(=O)N[C@@H](CC(C)C)C(=O)N[C@@H](C(=O)O)[C@H](C)C(=O)N[C@@H](Cc2c[nH]c3ccccc23)C(=O)N[C@@H](/C=C/C(C)=C/[C@H](C)[C@H](Cc2ccccc2)OC)[C@H](C)C(=O)N[C@@H](C(=O)O)CCC(=O)N1C [compound 8, LW, reference compound] (W[Adda][d(γGlu)][NMeDha][dA]L[dAsp(3S-Me)]-OH; lactam N-7) | 1.4 | 0.29 | 0.4 | > 1000 | 0.22 | 1.4 | 0.16 | > 1000 | weakly OATP1B3 selective |  |  |  | sub-nanomolar
8 | C/C=C1/NC(=O)CC[C@H](C(=O)O)NC(=O)[C@@H](C)[C@H](/C=C/C(C)=C/[C@H](C)[C@H](Cc2ccccc2)OC)NC(=O)[C@H](Cc2c[nH]c3ccccc23)NC(=O)C[C@H](C(=O)O)NC(=O)[C@H](CC(C)C)NC(=O)[C@@H](C)NC1=O [compound 9, [D-Asp^3,(E)-Dhb^7]-MC-LW] | 1.4 | 7.7 | 11 | > 1000 |  |  |  |  | weakly OATP1B3 selective |  |  |  | 
9 | C=C1C(=O)N[C@H](C)C(=O)N[C@@H](CCCNC(=N)N)C(=O)N[C@@H](C(=O)O)[C@H](C)C(=O)N[C@@H](Cc2ccccc2)C(=O)N[C@@H](/C=C/C(C)=C/[C@H](C)[C@H](Cc2ccccc2)OC)[C@H](C)C(=O)N[C@@H](C(=O)O)CCC(=O)N1C [compound 12, MC-RF] (F[Adda][d(γGlu)][NMeDha][dA]R[dAsp(3S-Me)]-OH; lactam N-7) | 17.2 | 3.38 | 58.3 | > 1000 |  |  |  |  | most OATP1B3 selective |  |  |  | 
